Source: patent US8133991B2, “Allergen inactivating agent” (Kao Corporation, priority 2002, dated 2012)

Key:
Ceder = test: Quidel Allergen Screen: reactivity of immobilized allergen with allergy patient IgE; type: biochemical, Cryptomeria japonica; conditions: 1% sample, 100 μL/stick, room temperature 2 hours; distilled water control = 0
Description: (§1) Quidel Allergen Screen (manufactured by Xenith Biomed) which is a reagent for detecting antigen-specific IgE antibody by using enzyme-labeled anti-IgE antibody was used to measure the reactivity between the allergen (house dust, Dermatophagoides farinae, Dermatophagoides pteronyssinus, cat epidermis, Cryptomeria japonica, ragweed, and the like) immobilized on a dip stick and the IgE antibody from the allergy patient by the procedure as described below.
The allergen stick was placed in a wetting box with the pad side facing upward, and the stick was impregnated with the product of the present invention adjusted to 1% at an amount of 100 μL/stick and left at room temperature for 2 hours. […]
About 1 mL of enzyme-labeled anti-IgE antibody was placed in a test tube, and allergen stick is placed in the test tube with the pad facing downward after washing the allergen stick and shaking off the excess water, and the reaction was allowed to take place at room temperature for 30 minutes. […] Next, intensity of the blue color developed was measured with an image analyzer, and decrease in the reactivity by the product of the present invention was calculated by the following equation by using the color intensity attained when the IgE from allergy patient was used with distilled water treatment for the control. […]

[1] = molecular target: T1, Dermatophagoides allergen Derf2 (Dermatophagoides farinae, UniProt Q00855); test: Derf2 sandwich ELISA of mite extract after treatment with sample; type: biochemical; conditions: 1% sample solution mixed 1:1 with 0.5 mg/mL mite extract, room temperature 2 hours; distilled water control = 1; lower = more inactivation
T1 construct: purchased Torii Pharmaceutical Co., Ltd; host or cells: mite extract (natural allergen extract)
T1 sequence (Q00855 18-146): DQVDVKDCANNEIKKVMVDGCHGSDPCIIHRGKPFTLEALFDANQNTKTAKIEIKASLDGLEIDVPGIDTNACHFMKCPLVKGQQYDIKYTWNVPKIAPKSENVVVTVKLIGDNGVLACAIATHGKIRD
Protocol: (1) The polysaccharide derivative of the present invention was dissolved in distilled water to prepare 1% solution. Quantity of Dermatophagoides allergen was measured as a typical allergen in the indoor environment by sandwich ELISA using a mouse monoclonal antibody. More specifically, quantity of Dermatophagoides allergen Derf2 was measured by using Derf2 antibody and a labeled antibody manufactured by Asahi Brewery, Ltd.
The allergen inactivation effect is indicated in terms of the ratio in relation to the control wherein the sample was treated in the same way except for the use of distilled water, namely, by assuming the Derf2 quantity in the control as 1.
(2) Scratch extract “mite” (manufactured by Torii Pharmaceutical Co., Ltd.) was placed in a dialysis tube, and dialyzed overnight in 10% PBS (4° C.) to remove glycerol in the extract. […] Quantity of Derf2 in the reaction solution was determined by using anti-Derf2 monoclonal antibody (15E11) and HRP-labeled anti-Derf2 monoclonal antibody (13A4) manufactured by Asahi Brewery, Ltd. in accordance with the protocol attached with the product, and using Derf2 for the Derf2 antigen for depicting the calibration curve.
Quantity of the Derf2 treated with various samples was calculated in relation to the quantity of Derf2 treated with the distilled water, which was assumed to be 1.

Cat epithelium = test: Quidel Allergen Screen: reactivity of immobilized allergen with allergy patient IgE; type: biochemical; conditions: 1% sample, 100 μL/stick, room temperature 2 hours; distilled water control = 0
Description: as §1
(§2) The allergen stick was placed in a wetting box with the pad side facing upward, and the stick was impregnated with the product of the present invention adjusted to 1% at an amount of 100 μL/stick and left at room temperature for 2 hours. Each pad was washed evenly for 30 seconds with physiological saline in a washing bottle, and 50 μL/stick of the serum collected from an allergy patient was added dropwise to the pad and the serum was evenly spread. The wetting box was covered with lid and allowed to stand for 18 hours at room temperature. After the completion of the reaction, the pad was washed evenly for 20 seconds by the physiological saline in a washing bottle.
(§3) About 1 mL of enzyme-labeled anti-IgE antibody was placed in a test tube, and allergen stick is placed in the test tube with the pad facing downward after washing the allergen stick and shaking off the excess water, and the reaction was allowed to take place at room temperature for 30 minutes. After the termination of the reaction, each pad was evenly washed with tap water for 2 minutes. At this occasion, disappearance of the red color on the pad was confirmed. About 1 mL of the substrate solution was poured into test tube, and allergen stick was placed in the test tube with the pad facing downward after washing the allergen stick and shaking off the excess water, and the reaction was allowed to take place at room temperature for 30 minutes. After the completion of the reaction, reaction was terminated by absorbing the water impregnated in the pad with a paper towel by gently patting the pad with the paper towel from the rear side of the pad. Next, intensity of the blue color developed was measured with an image analyzer, and decrease in the reactivity by the product of the present invention was calculated by the following equation by using the color intensity attained when the IgE from allergy patient was used with distilled water treatment for the control.
(§4) Allergen inactivation effect (%)=100−{(IgE reaction intensity when treated by the product of the present invention)−(reaction intensity of the negative control)}/{(IgE reaction intensity of the control treated by distilled water)−(reaction intensity of the negative control)×100

Dermatophagoides farinae = test: as above; type: biochemical; conditions: 1% sample, 100 μL/stick, room temperature 2 hours; distilled water control = 0
Description: as §1, §2, §3, §4

House dust 1 = test: as above; type: biochemical; conditions: 1% sample, 100 μL/stick, room temperature 2 hours; distilled water control = 0
Description: as §1, §2, §3, §4

[2] = system: Dermatophagoides pteronyssinus; test: as above; type: biochemical; conditions: 1% sample, 100 μL/stick, room temperature 2 hours; distilled water control = 0
Description: as §1, §2, §3, §4

O=C(OC[C@H]1O[C@@H](OC(=O)c2cc(O)c(O)c(OC(=O)c3cc(O)c(O)c(O)c3)c2)[C@H](OC(=O)c2cc(O)c(O)c(OC(=O)c3cc(O)c(O)c(O)c3)c2)[C@@H](OC(=O)c2cc(O)c(O)c(OC(=O)c3cc(O)c(O)c(O)c3)c2)[C@@H]1OC(=O)c1cc(O)c(O)c(OC(=O)c2cc(O)c(O)c(O)c2)c1)c1cc(O)c(O)c(OC(=O)c2cc(O)c(O)c(O)c2)c1 [Tannic acid]
Allergen inactivating effect (%) <Plant allergen> Ceder (Ceder): 78% | Quantity of Derf2 (Ratio to the control) [1]: 0.2 | Allergen inactivating effect (%) <Animal allergen> Cat epithelium (Cat epithelium): 92% | Allergen inactivating effect (%) <Animal allergen> Dermatophagoides farinae (Dermatophagoides farinae): 62% | Allergen inactivating effect (%) <Animal allergen> House dust 1 (House dust 1): 83% | Allergen inactivating effect (%) <Animal allergen> Dermatophagoides pteronyssinus [2]: 70%
